Source: PubChem BioAssay AID2744 (NMMLSC, 2010)
The source made the active and inactive calls.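 How the source made its calls: active means fitted half-maximal concentration for changing reporter fluorescence at or below a set limit; inactive means the rest.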

Molecular target: Citrate synthase, peroxisomal (Saccharomyces cerevisiae (strain ATCC 204508 / S288c)) (UniProt P08679)
Test: CIT2-GFP expression modulators in yeast, dose response, flow cytometry, MLPCN hits (AID 2744)
Conditions: S. cerevisiae CIT2-GFP strain, 3 h; for GFP fluorescence, higher = induction: at 33 µM (top of the series); for EC50: flow cytometry fluorescence

Citrate synthase, peroxisomal (Saccharomyces cerevisiae (strain ATCC 204508 / S288c)), sequence (P08679 whole entry, looked up): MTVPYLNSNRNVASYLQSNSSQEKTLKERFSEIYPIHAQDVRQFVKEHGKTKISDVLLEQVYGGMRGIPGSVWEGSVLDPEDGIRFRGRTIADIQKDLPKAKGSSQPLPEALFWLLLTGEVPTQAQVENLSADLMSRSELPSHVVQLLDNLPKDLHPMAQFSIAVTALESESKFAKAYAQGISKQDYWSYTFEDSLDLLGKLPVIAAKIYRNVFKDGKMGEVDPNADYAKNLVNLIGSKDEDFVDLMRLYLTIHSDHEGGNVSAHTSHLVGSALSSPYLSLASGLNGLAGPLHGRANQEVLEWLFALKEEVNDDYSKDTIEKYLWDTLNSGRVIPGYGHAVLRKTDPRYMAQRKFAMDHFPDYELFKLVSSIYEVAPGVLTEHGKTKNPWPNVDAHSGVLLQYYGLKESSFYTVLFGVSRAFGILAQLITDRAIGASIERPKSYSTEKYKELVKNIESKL

SMILES: O=C1c2cccc3c([N+](=O)[O-])ccc(c23)C(=O)N1O
- GFP fluorescence, higher = induction: inactive

SMILES: O=C1NC(=S)NC(=O)C1=Cc1ccc2c(c1)CCN2CCCCl
- GFP fluorescence, higher = induction: inactive

SMILES: COc1cc(/C=C2/C(=O)ON=C2c2ccccc2)ccc1O
- GFP fluorescence, higher = induction: inactive

SMILES: CC(C)Oc1ccc(C(=O)/C=C2/C(=O)Nc3ccccc32)cc1
- GFP fluorescence, higher = induction: inactive

SMILES: COc1ccc(/C=C/C(=O)NC(=S)NNC(=O)c2cnccn2)cc1
- GFP fluorescence, higher = induction: inactive

SMILES: Cc1cccc(NC(c2ccc(C)s2)c2ccc3ccc(C)nc3c2O)n1 (stereo unspecified)
- GFP fluorescence, higher = induction: inactive

SMILES: CCCCCCCCn1sccc1=O
- GFP fluorescence, higher = induction: inactive

SMILES: O=C(Nc1nc2ccc(F)cc2s1)c1ccccn1
- GFP fluorescence, higher = induction: inactive

SMILES: COc1ccc(NC2=C(Cl)C(=O)N(CCc3ccccc3)C2=O)cc1
- GFP fluorescence, higher = induction: inactive

SMILES: CCOC(=O)CCS(=O)(=O)c1nc(-c2ccccc2)cc(C(F)(F)F)n1
- GFP fluorescence, higher = induction: inactive

SMILES: Cc1c(NC2=C(Cl)C(=O)N(c3ccccc3Cl)C2=O)c(=O)n(-c2ccccc2)n1C
- GFP fluorescence, higher = induction: inactive

SMILES: CCc1ccc(C(=O)/C=C/c2ccc([N+](=O)[O-])o2)cc1
- GFP fluorescence, higher = induction: inactive

SMILES: COc1ccccc1NC1=C(Cl)C(=O)N(c2ccccc2)C1=O
- GFP fluorescence, higher = induction: inactive

SMILES: O=[N+]([O-])c1ccc(S(=O)(=O)c2ccccc2)nc1
- GFP fluorescence, higher = induction: inactive

SMILES: COc1cccc2c(=O)c(C(=O)NCc3cccs3)c[nH]c12
- GFP fluorescence, higher = induction: inactive

SMILES: CCCOc1ccc(C(=O)NNC(=S)NC(=O)c2ccco2)cc1
- GFP fluorescence, higher = induction: inactive

SMILES: Cc1ccccc1C(=O)NNC(=S)NC(=O)c1ccc(Cl)cc1Cl
- GFP fluorescence, higher = induction: inactive

SMILES: N/C(Cc1ccc(Cl)cc1)=N\OC(=O)c1ccccc1
- EC50: 3.35 µM

SMILES: Cc1ccc(S(=O)(=O)c2ncccc2[N+](=O)[O-])cc1
- GFP fluorescence, higher = induction: inactive

SMILES: CCCOc1ccc(C(=O)NNC(=S)NC(=O)CC)cc1
- EC50: 3.1 µM

SMILES: COc1ccc2c(c1)c1nnc(SC)nc1n2C
- GFP fluorescence, higher = induction: inactive

SMILES: O=C(Oc1oc(-c2ccco2)nc1C=Nc1ccc(Cl)cc1)c1ccco1
- GFP fluorescence, higher = induction: inactive

SMILES: Cc1c(C(=O)Nc2nc(-c3ccccn3)cs2)oc2ccccc12
- GFP fluorescence, higher = induction: inactive

SMILES: COc1cc(/C=C2\CC/C(=C\c3cc(OC)c(O)c(OC)c3)C2=O)cc(OC)c1O
- GFP fluorescence, higher = induction: inactive

SMILES: CC1(C)OC(c2ccccc2)=C/C(=C/C=C2C(=O)NC(=S)NC2=O)O1
- GFP fluorescence, higher = induction: inactive

SMILES: Cc1[nH][nH]c(=O)c1C(c1ccc(-c2ccc(Cl)cc2)o1)c1c(C)[nH][nH]c1=O
- GFP fluorescence, higher = induction: inactive

SMILES: CSC1=NS(=O)(=O)c2c(C)nn(C)c2S1
- GFP fluorescence, higher = induction: inactive

SMILES: CCOc1ccccc1/C=c1\sc2ncnn2c1=O
- GFP fluorescence, higher = induction: inactive

SMILES: COc1cccc(N=Nc2ccc(O)c3ncccc23)c1
- GFP fluorescence, higher = induction: inactive

SMILES: CC1=NOC(=O)/C1=C\c1ccc(-c2cc(Cl)ccc2Cl)o1
- GFP fluorescence, higher = induction: inactive

SMILES: Cc1cc(C)c(OCC(=O)Nc2nc(-c3ccccn3)cs2)c(C)c1
- GFP fluorescence, higher = induction: inactive

SMILES: O=C(/C=C/c1ccccc1)NC(=S)NNC(=O)Cc1cccs1
- GFP fluorescence, higher = induction: inactive

SMILES: O=c1c2sc(-c3ccccc3)cc2nc2n1CCC2
- GFP fluorescence, higher = induction: inactive

SMILES: CSc1nnc2c3cc(F)ccc3n(C)c2n1
- GFP fluorescence, higher = induction: inactive

SMILES: O=C(Nc1nnc(-c2ccc(F)cc2)o1)c1cc(Cl)sc1Cl
- GFP fluorescence, higher = induction: inactive

SMILES: COC(=O)CCC(=O)OC1(C)C(=O)C2=COC(c3ccc(OC)cc3)=CC2=C(Br)C1=O (stereo unspecified)
- GFP fluorescence, higher = induction: inactive

SMILES: Cc1ccc(/C=C/C(=O)c2ccc([N+](=O)[O-])o2)cc1
- GFP fluorescence, higher = induction: inactive

SMILES: O=C(/C=C/c1cc(Br)ccc1O)c1ccco1
- GFP fluorescence, higher = induction: inactive

SMILES: Oc1ccc(COCc2ccccc2)c2cccnc12
- GFP fluorescence, higher = induction: inactive

SMILES: CCCCOc1ccc(C(=O)NNC(=S)NC(=O)CC)cc1
- GFP fluorescence, higher = induction: inactive

SMILES: CCc1ccc(/C=C/C(=O)c2cc(Br)ccc(=O)c2O)cc1
- GFP fluorescence, higher = induction: inactive

SMILES: O=c1/c(=C/c2cccc3ccccc23)sc2ncnn12
- GFP fluorescence, higher = induction: inactive

SMILES: COc1cc(SSc2cc(OC)cc([N+](=O)[O-])c2N)c(N)c([N+](=O)[O-])c1
- GFP fluorescence, higher = induction: inactive

SMILES: Oc1c(I)cc(I)c2cccnc12
- GFP fluorescence, higher = induction: inactive

SMILES: C/C(=N\Nc1ncnc2sc(C)c(C)c12)c1ccccn1
- GFP fluorescence, higher = induction: inactive

SMILES: Oc1ccc2ccccc2c1/C=N/Nc1nnc(-c2ncc[nH]2)c2ccccc12
- GFP fluorescence, higher = induction: inactive

SMILES: O=C1c2sc3nc4ccccc4n3c2C(=O)N1c1ccccc1Cl
- GFP fluorescence, higher = induction: inactive

SMILES: Cc1ccc(/C=C/C(=O)c2ccccc(=O)c2O)c(C)c1
- EC50: 14.7 µM

SMILES: Cc1ccccc1OCCOC(=O)c1ccc(S(=O)(=O)N2CCCC2)cc1
- GFP fluorescence, higher = induction: inactive

SMILES: O=C(C#Cc1cccc([N+](=O)[O-])c1)c1ccccc1
- GFP fluorescence, higher = induction: inactive

SMILES: COc1cc(/C=C2\C(=O)ON=C2c2ccc(Cl)cc2)ccc1O
- GFP fluorescence, higher = induction: inactive

SMILES: Clc1cccc(CN2COc3c(cc(Cl)c4cccnc34)C2)c1
- GFP fluorescence, higher = induction: inactive

SMILES: CC(C)[C@]1(c2ccccc2)ON(c2ccccc2C(F)(F)F)C1=O
- GFP fluorescence, higher = induction: inactive

SMILES: CC(=O)SC(C[N+](=O)[O-])c1cn(C(C)=O)c2ccccc12 (stereo unspecified)
- GFP fluorescence, higher = induction: inactive

SMILES: CS(=O)(=O)c1sc(C#N)c2c1C(=O)CC(c1ccccc1)C2 (stereo unspecified)
- GFP fluorescence, higher = induction: inactive

SMILES: COc1cc(C=C2C(=O)c3ccccc3C2=O)cc(OC)c1OC
- GFP fluorescence, higher = induction: inactive

SMILES: Cc1cc(NC(c2ccc(Cl)cc2)c2ccc3cccnc3c2O)no1 (stereo unspecified)
- GFP fluorescence, higher = induction: inactive

SMILES: O=c1cc(CSc2ccc(Cl)cc2)nc(-c2ccccn2)[nH]1
- GFP fluorescence, higher = induction: inactive

SMILES: COc1ccc(C2=CC3=C(Br)C(=O)C(C)(O)C(=O)C3=CO2)cc1 (stereo unspecified)
- GFP fluorescence, higher = induction: inactive

SMILES: O=C(Oc1c(Cl)cc(Cl)c2cccnc12)c1ccco1
- GFP fluorescence, higher = induction: inactive

SMILES: CN(Cc1cnc2nc(N)nc(N)c2n1)c1ccc(C(=O)N[C@@H](CCC(=O)O)C(=O)O)cc1
- GFP fluorescence, higher = induction: inactive

SMILES: CCCc1cc(N2CCN(c3ccccn3)CC2)n2nc(C)c(-c3ccccc3)c2n1
- GFP fluorescence, higher = induction: inactive

SMILES: N/C(Cc1ccc(Cl)c(Cl)c1)=N\OC(=O)c1cccs1
- EC50: 10.3 µM

SMILES: COc1ccc(NC2=C(Cl)C(=O)N(CCc3ccccc3)C2=O)c(OC)c1
- GFP fluorescence, higher = induction: inactive

SMILES: CC(C)(C)n1nc(-c2ccc(F)cc2)c2c(N)ncnc21
- GFP fluorescence, higher = induction: inactive

SMILES: CCOc1cc(C=C2C(=O)c3ccccc3C2=O)ccc1OCC(=O)Nc1ccc(C)cc1
- GFP fluorescence, higher = induction: inactive

SMILES: CN(C)c1ccc(N=Cc2nc(-c3ccccc3)oc2OC(=O)c2ccccc2)cc1
- GFP fluorescence, higher = induction: inactive

SMILES: O=C1NC(=O)C(=Cc2ccc(-c3ccc(Cl)cc3)o2)C(=O)N1
- GFP fluorescence, higher = induction: inactive

SMILES: CN(C)NC(=S)Nc1ccc(S(=O)(=O)N2CCCCC2)cc1
- GFP fluorescence, higher = induction: inactive

SMILES: COc1ccc(C(=O)NC(=S)NNC(=O)CCc2ccccc2)cc1
- GFP fluorescence, higher = induction: inactive

SMILES: CCOc1ccc(N2C(=O)/C(=C\c3cccs3)C(=O)NC2=S)cc1
- GFP fluorescence, higher = induction: inactive

SMILES: O=C(NC(=S)NNC(=O)c1cnccn1)c1ccc(F)cc1
- GFP fluorescence, higher = induction: inactive

SMILES: O=C1C=CC(=O)N1c1cccc(-c2ccccc2)c1
- GFP fluorescence, higher = induction: inactive

SMILES: CC(C)(C)C(=O)NC(=S)NNC(=O)c1ccc(-c2ccccc2)cc1
- GFP fluorescence, higher = induction: inactive

SMILES: O=C(NNC(=S)NC(=O)c1ccco1)c1ccc(F)cc1
- GFP fluorescence, higher = induction: inactive

SMILES: COc1ccc(C(c2c(C)[nH]n(C(N)=S)c2=O)C(C#N)C#N)cc1 (stereo unspecified)
- GFP fluorescence, higher = induction: inactive

SMILES: CCC(=O)Oc1oc(-c2ccccc2)nc1C=Nc1ccccc1OC
- GFP fluorescence, higher = induction: inactive

SMILES: O=C(Nc1cccc(C(F)(F)F)c1)Oc1ccc(Cl)c2cccnc12
- GFP fluorescence, higher = induction: inactive

SMILES: Cc1ccc(/C=C2\C(=O)NC(=S)N(c3ccccc3F)C2=O)s1
- GFP fluorescence, higher = induction: inactive

SMILES: Cc1ccc(C(=O)O)cc1N=Cc1cc(Br)cc(Br)c1O
- GFP fluorescence, higher = induction: inactive

SMILES: COc1cc(/C=C2\C(=O)N(CCC#N)N=C2C)c(Br)cc1OC(C)C
- GFP fluorescence, higher = induction: inactive

SMILES: O=[N+]([O-])c1ccc(O)c(/C=N/Nc2ccccn2)c1
- GFP fluorescence, higher = induction: inactive

SMILES: O=C(/C=C/c1cccc([N+](=O)[O-])c1)c1ccc([N+](=O)[O-])o1
- GFP fluorescence, higher = induction: inactive

SMILES: C=CCOc1ccccc1C(=O)/C=C1/C(=O)Nc2ccccc21
- GFP fluorescence, higher = induction: inactive

SMILES: COc1ccc(/C=C2\C(=O)ON=C2c2ccccc2)cc1
- GFP fluorescence, higher = induction: inactive

SMILES: Cc1cccc(N2C(=O)C(Cl)=C(Nc3c(C)n(C)n(-c4ccccc4)c3=O)C2=O)c1C
- GFP fluorescence, higher = induction: inactive

SMILES: CN(C)C(=O)Oc1ccnc2cc(Cl)ccc12
- GFP fluorescence, higher = induction: inactive

SMILES: COc1ccc(N2C(=O)C(Cl)=C(Nc3c(C)n(C)n(-c4ccccc4)c3=O)C2=O)cc1
- GFP fluorescence, higher = induction: inactive

SMILES: COc1ccccc1-c1nc2s/c(=C\c3cccs3)c(=O)n2n1
- GFP fluorescence, higher = induction: inactive

SMILES: O=c1c2cc(Cl)ccc2nc(-c2ccc([N+](=O)[O-])cc2)n1O
- GFP fluorescence, higher = induction: inactive

SMILES: CC1=CC(=O)C(C(C)C)=C/C1=N/OS(=O)(=O)c1ccccc1
- GFP fluorescence, higher = induction: inactive

SMILES: Cc1ccc2c(nc3s/c(=C\c4ccc(-c5ccccc5C(=O)O)o4)c(=O)n32)c1C
- GFP fluorescence, higher = induction: inactive

SMILES: CN(O)/C=c1/ccc2c(n1)C(=O)C=CC=2
- GFP fluorescence, higher = induction: inactive

SMILES: COc1cccc2cc(-c3nc4ccccc4o3)c(=O)oc12
- GFP fluorescence, higher = induction: inactive

SMILES: CC(C)(C)c1nnc(N/N=C/c2cc(Br)ccc2O)n(N)c1=O
- GFP fluorescence, higher = induction: inactive

SMILES: O=C(/C=C/c1ccccc1)c1cc(Br)ccc(=O)c1O
- GFP fluorescence, higher = induction: inactive
